From patent US20220249665A1, “TRANSFECTION METHOD” (Takeda Pharmaceutical Company Limited, priority 2019, published 2022)

System: C2C12 cells
Assay: Introduction of low-molecular-weight compound (FITC) into skeletal muscle cell
Type: cell-based
Method: C2C12 cells (3×10^4 cells, 0.5 mL) in 10% FBS-containing DMEM medium were seeded in 48 wells. After removing the medium, 0.5 ml of ultrafine bubble/DMEM medium containing 0.38 μg of FITC was added. An ultrafine bubble/DMEM medium prepared by adding 1 L of the ultrafine bubble aqueous solution prepared in Reference Example 1 to a DMEM medium powder, and adding 2 g/L NaHCO3 and 10% FBS was used as a transfection medium.
After adding the FITC-containing medium, ultrasound exposure was performed for 10 sec at a frequency of 1 MHz and output intensities of 100, 250, 500 mW/cm^2 and using an ultrasound generator (NEPAGENE). After ultrasound exposure, the cells were cultured for 2 hr, then the transfection medium was removed, and the cells were cultured in DMEM medium (culture medium) for 48 hr.
After completion of the culture, the cells were collected, completely lysed with 0.5 mL of cell lysis solution, and the fluorescent intensity of FITC was measured with a spectrofluoro-photometer. The amount of FITC uptake was evaluated as a relative amount by proportional calculation with the measured value of Control (ultrafine bubbles alone) as 1.

O=C1OC2(c3ccc(O)cc3Oc3cc(O)ccc32)c2ccc(N=C=S)cc21 [FITC]
introduction efficiency of FITC into the cell (ultrafine bubbles (negatively-charged, C3F8) combined with ultrasound 1 MHz, 10 sec, C2C12, 0.38 μg FITC): remarkably increased | introduction efficiency of FITC (ultrafine bubbles + ultrasound 100 mW/cm^2): increasing tendency was observed | introduction efficiency of FITC (ultrafine bubbles + ultrasound 250 mW/cm^2): particularly superior introduction efficiency | introduction efficiency of FITC (ultrafine bubbles + ultrasound 250 or 500 mW/cm^2): increased significantly
